Assay results: patent US5208243A, “5-isoquinolinesulfonamides” (Adir et Compagnie, priority 1991, dated 1993)
Where a name gives a salt, the structure may show the parent alone. Read-outs that look alike come from different tables or passages of the source.

Columns and labels:
rat aortas = test: Contraction of rat aortas induced by potassium depolarization (hyperpotassium medium); parameters: species or system WISTAR rat; details: read-out: IC50 (concentration inhibiting by 50% the contraction of rat aortas induced by potassium depolarization)
Source text: The rings are linked to a STATHAM tension sensor (UC2-GOULD).

rabbit aortas = test: Contraction of rabbit aortas induced by noradrenaline in a medium without calcium; parameters: species or system New Zealand rabbit; details: Oryctolagus cuniculus, 0.5 h, rabbit aorta, incubated 30 minutes; for inhibition at 1 µM: compound 10^-6 M; for inhibition at 0.1 µM: compound 10^-7 M
Experimental: (§1) Studies are carried out on rings, 3 mm in length, […] The vascular rings are immersed in a normal physiological solution or in a physiological solution lacking calcium (+0.2 mM of the chelating agent EGTA), which is thermostatically regulated at 37° C. and aerated with a 95% O2 +5% CO2 mixture. The rings are linked to a STATHAM tension sensor (UC2-GOULD). The optimal tension for each vessel is applied and a stabilization period of 90 min is observed for the preparations. b) Antivasoconstrictive activity of the compounds of the invention in a medium without calcium.

rabbit aorta [1] = test: Contraction of rabbit aorta induced by noradrenaline in a normal physiological medium; parameters: species or system New Zealand rabbit; details: Oryctolagus cuniculus, noradrenaline 10^-6 M, read-out: IC50, noradrenaline stimulus
Experimental: as §1, with “a)” for “b)”, “physiological medium.” for “medium without calcium.”

rabbit mesenteric artery = test: Contraction of rabbit mesenteric artery induced by electrical stimulation; parameters: species or system New Zealand rabbit; details: Oryctolagus cuniculus, normal physiological medium
Experimental: as §1, with “a)” for “b)”, “physiological medium.” for “medium without calcium.”

rabbit aorta [2] = test: Contraction of rabbit aorta induced by endothelin in a normal physiological medium; parameters: species or system New Zealand rabbit; details: Oryctolagus cuniculus, read-out: IC50, endothelin stimulus
Experimental: as §1, with “a)” for “b)”, “physiological medium.” for “medium without calcium.”

rabbit aorta [3] = test: Contraction of rabbit aorta induced by phorbol ester in a normal physiological medium; parameters: species or system New Zealand rabbit; details: Oryctolagus cuniculus, TPA 10^-5 M, read-out: IC50, phorbol ester stimulus
Experimental: as §1, with “a)” for “b)”, “physiological medium.” for “medium without calcium.”

rabbit aorta [4] = test: Vascular contraction of rabbit aorta induced by PDGF; parameters: species or system New Zealand rabbit; details: Oryctolagus cuniculus, 10^-5 M, preincubated 15 minutes
Experimental: as §1, with “a)” for “b)”, “physiological medium.” for “medium without calcium.”

pig coronary artery = test: Vascular contraction of pig coronary artery induced by acetylcholine; details: Sus scrofa, 10^-5 M, preincubated 15 minutes
Experimental: Studies are carried out on rings, 3 mm in length, - or of coronary arteries from pigs anesthetized with nesdonal (8 mg/kg intravenously). The vascular rings are immersed in a normal physiological solution or in a physiological solution lacking calcium (+0.2 mM of the chelating agent EGTA), which is thermostatically regulated at 37° C. and aerated with a 95% O2 +5% CO2 mixture. The rings are linked to a STATHAM tension sensor (UC2-GOULD). The optimal tension for each vessel is applied and a stabilization period of 90 min is observed for the preparations. a) Antivasoconstrictive activity of the compounds of the invention in a physiological medium.

rabbit aorta [5] = test: Contraction of rabbit aorta induced by angiotensin II in a medium without calcium; parameters: species or system New Zealand rabbit; details: Oryctolagus cuniculus, 10^-5 M, medium lacking calcium
Experimental: as §1

rabbit aorta [6] = test: Contraction of rabbit aorta induced by endothelin in a medium without calcium; parameters: species or system New Zealand rabbit; details: Oryctolagus cuniculus, 10^-5 M, medium lacking calcium
Experimental: as §1

rabbit aorta [7] = test: Contraction of rabbit aorta induced by phorbol ester in a medium without calcium; parameters: species or system New Zealand rabbit; details: Oryctolagus cuniculus, 10^-5 M, medium lacking calcium
Experimental: as §1

Rabbit iliac artery = test: Contraction of rabbit iliac artery induced by caffeine in a medium without calcium; parameters: species or system New Zealand rabbit; details: Oryctolagus cuniculus, 10^-5 M, medium lacking calcium
Experimental: as §1

guinea pig left auricle [8] = test: Ouabain intoxication of guinea pig left auricle; details: compound 10^-6 M
guinea pig left auricle [9] = test: Veratridine intoxication of guinea pig left auricle; details: compound 10^-5 M
Experimental: a) Effect of the compounds of the invention on the intoxication of guinea pig left auricle.
The left auricles are removed from guinea pigs (350-450 g) anesthetized with sodium pentobarbital (30 mg/kg). The auricles are attached to a STATHAM tension sensor (UC2-GOULD) and the initial tension applied is 0.5 grams.
The auricles are electrically stimulated at 1 Hz by means of platinum electrodes. The intoxications are produced either by the addition of ouabain (10^-6 M) or by the addition of veratridine (10^-5 M). The test compounds are added 15 minutes before adding the toxic agent.

isolated heart = test: Isolated heart subjected to an ischemia-reperfusion sequence; parameters: species or system WISTAR rat; details: Rattus norvegicus, concentration of 810^-7 M (so in the source)
Experimental: b) Protective effect of the compounds of the invention on an isolated heart subjected to an ischemia-reperfusion sequence.
The heart is removed from WISTAR rats (325-375 g). The heart is rapidly perfused according to the technique of LANGENDORFF at a constant pressure of 101.310^2 Pa and electrically stimulated at 5 Hz.
The heart is subjected to a 30 min ischemia (produced by complete stoppage of the perfusion) followed by a 60 min reperfusion. The test compounds are incubated for 15 min before the ischemia.
Isovolumetric contractions are recorded by means of a polyethylene ballonet linked to a pressure sensor (P23-GOULD) introduced into the left ventricle and inflated so as to obtain a diastolic pressure of between 6.710^2 and 13.310^2 Pa.

[10] = test system: smooth muscle cells of the aorta; test: Proliferation rate after endothelial denudation of the aorta (3H-thymidine incorporation); assay type: in vivo, WISTAR rat; details: 10 mg/kg orally, daily
Experimental: D/ Effect of the compounds of the invention on the proliferation rate after endothelial denudation. […] After pretreatment for 6 days (J6), denudation of the aortic endothelium of the animals is performed according to the following method: After anesthetizing the animal with methohexital (Brietal, 60 mg/kg intraperitoneally), an embolectomy probe (Fogarty 2F) is introduced into the aorta through the left carotid. Aortic deendothelialization is achieved by three successive passages of the probe. Three days after the endothelial denudation (J9), the rats are sacrificed and the aorta is removed, incubated in a physiological solution for 1 hour at 37° C., and then transferred into a ^3 H-thymidine-enriched Krebs- Henseleit solution (specific activity: […]) for 1 hour at 37° C. This is followed by a one-hour post-incubation in a Krebs-Henseleit solution lacking ^3 H-thymidine. After washing in a Tris-EDTA buffer, the proliferation rate is calculated from the incorporation of 3H-thymidine. [drawing 17]

For `CN(C1CCN(CCCCOc2ccc([N+](=O)[O-])cc2)CC1)S(=O)(=O)c1cccc2cnccc12` [Example 2, N-Methyl-N-{1-[4-(p-nitrophenoxy)butyl]-4-piperidyl}-5-isoquinolinesulfonamide fumarate], the IC50 (rat aortas; 80 mM KCl, 37 mM NaCl) was 1.3 µM and the inhibition at 1 µM (rabbit aortas) was 12%.

With `CN(CC1CCN(CCCNc2ccc(F)cc2)CC1)S(=O)(=O)c1cccc2cnccc12` [Example 25, N-Methyl-N-{1-[3-(p-fluorophenylamino)propyl]-4-piperidyl]methyl}-5-isoquinolinesulfonamide fumarate] the inhibition at 1 µM (rabbit aortas) was 77% and the inhibition at 0.1 µM (rabbit aortas) was 22%.

In the case of `CN(C1CCN(CCCCOc2ccc(F)cc2)CC1)S(=O)(=O)c1cccc2cnccc12` [Example 1, N-Methyl-N-{1-[4-(pfluorophenoxy)butyl]-4-piperidyl}-5-isoquinolinesulfonamide fumarate], the IC50 (rat aortas) is reported as 0.85 µM, the IC50 (rabbit aorta [1]) is reported as 1.4 µM and the IC50 (rabbit mesenteric artery) is reported as 0.4 µM. The IC50 (rabbit aorta [2]) was 8.1 µM, the IC50 (rabbit aorta [3]) was 300 µM and the inhibition at 10 µM (rabbit aorta [4]) was 20%. It also gave an inhibition at 10 µM (pig coronary artery) of 61%, an inhibition at 1 µM (rabbit aortas) of 61% and an inhibition at 10 µM (rabbit aorta [5]) of 40%. The inhibition at 10 µM (rabbit aorta [6]) was 42%, the inhibition at 10 µM (rabbit aorta [7]) was 66% and the inhibition at 10 µM (Rabbit iliac artery) was 30%. The “% contraction” value (guinea pig left auricle [8]; 10 min) was 192 ± 29%, the “Contracture (%)” value (guinea pig left auricle [8]; 15 min) was 0% and the “% contraction” value (guinea pig left auricle [8]; 30 min) was 187.5 ± 30%. The “Contracture (%)” value (guinea pig left auricle [8]; 30 min) was 1.9 ± 1.9%, the “% contraction” value (guinea pig left auricle [8]; 60 min) was 148.3 ± 33% and the “Contracture (%)” value (guinea pig left auricle [8]; 60 min) was 18 ± 7%. For the same compound, the “% contraction” value (guinea pig left auricle [9]; 5 min) was 158 ± 11%, the “% contraction” value (guinea pig left auricle [9]; 15 min) was 60.5 ± 13% and the “Contracture (%)” value (guinea pig left auricle [9]; 15 min) was 23.5 ± 6.2%. The “Contracture (%)” value (guinea pig left auricle [9]; 30 min) was 52.2 ± 4.7%, the “% contraction” value (guinea pig left auricle [9]; 60 min) was 20.5 ± 4.6% and the “Contracture (%)” value (guinea pig left auricle [9]; 60 min) was 60.7 ± 4.4%. For the same compound, the inhibition at 0.8 µM (isolated heart; 0.5 h, read-out: reduction of the contracture developed after 30 minutes of ischemia, relative to control) was 47%, the activation at 0.8 µM (isolated heart; 1 h, end of 60 minutes of reperfusion, read-out: improvement of the functional recuperation of the hearts relative to control) was 55% and the “reduction of the proliferation of smooth muscle cells” value [10] was 40%.

With `CN(C1CCN(CCCCOc2ccccc2)CC1)S(=O)(=O)c1cccc2cnccc12` [Example 3, N-Methyl-N-{1-[4-(phenoxy)butyl]4-piperidyl}-5 isoquinolinesulfonamide fumarate] the IC50 (rat aortas; 80 mM KCl, 37 mM NaCl) was 1.7 µM and the inhibition at 1 µM (rabbit aortas) was 47%.

`O=S(=O)(NC1CCN(CCCCOc2ccc(F)cc2)CC1)c1cccc2cnccc12` [Example 13, N-{1-[4-(p-fluorophenoxy)butyl]4-piperidyl)}-5-isoquinolinesulfonamide dihydrochloride] was tested, and the IC50 (rat aortas; 80 mM KCl, 37 mM NaCl) was 2.9 µM and the inhibition at 1 µM (rabbit aortas) was 42%.

Work on `COc1ccc(OCCCCN2CCC(N(C)S(=O)(=O)c3cccc4cnccc34)CC2)cc1` [Example 7, N-Methyl-N-{1-[4-(p-methoxyphenoxy)butyl]-4-piperidyl}-5-isoquinolinesulfonamide hydrochloride] yielded an IC50 (rat aortas; 80 mM KCl, 37 mM NaCl) of 1.9 µM and an inhibition at 1 µM (rabbit aortas) of 13%.

`O=S(=O)(NCC1CCN(CCCOc2ccc(F)cc2)CC1)c1cccc2cnccc12` [Example 15, N-{[1-[3-(p-Fluorophenoxy)propyl]-4-piperidyl]methyl}-5-isoquinolinesulfonamide] gave an IC50 (rat aortas; 80 mM KCl, 37 mM NaCl) of 3.5 µM and an inhibition at 1 µM (rabbit aortas) of 59%.

`CN(CC1CCN(CCCCOc2ccc(F)cc2)C1)S(=O)(=O)c1cccc2cnccc12` (stereo not shown) [Example 21, N-Methyl-N-{[1-[4-(p-fluorophenoxy)butyl]-3-pyrrolidinyl]methyl}-5-isoquinolinesulfonamide dihydrochloride] gave an IC50 (rat aortas; 80 mM KCl, 37 mM NaCl) of 1.9 µM, an inhibition at 1 µM (rabbit aortas) of 73% and an inhibition at 0.1 µM (rabbit aortas) of 17%.

Compound `CN(C1CCN(CCCCSc2ccc(F)cc2)CC1)S(=O)(=O)c1cccc2cnccc12` [Example 12, N-Methyl-N-{1-[4-(p-fluorophenylthio)butyl]-4-piperidyl}-5-isoquinolinesulfonamide dihydrochloride] has an IC50 (rat aortas; 80 mM KCl, 37 mM NaCl) of 1.3 µM and an inhibition at 1 µM (rabbit aortas) of 19%.

Work on `CN(C1CCN(CCCCOc2ccc(C#N)cc2)CC1)S(=O)(=O)c1cccc2cnccc12` [Example 8, N-Methyl N-{1-[4-(p-cyanophenoxy)butyl]4-piperidyl}-5-isoquinolinesulfonamide dihydrochloride] yielded an IC50 (rat aortas; 80 mM KCl, 37 mM NaCl) of 0.95 µM.

For `CN(CC1CCN(CCCOc2ccccc2)CC1)S(=O)(=O)c1cccc2cnccc12` [Example 19, N-Methyl-N-{[1-[3-(phenoxy)propyl]-4-piperidyl]methyl}-5-isoquinolinesufonamide], the IC50 (rat aortas; 80 mM KCl, 37 mM NaCl) was 2.8 µM, the inhibition at 1 µM (rabbit aortas) was 67% and the inhibition at 0.1 µM (rabbit aortas) was 31%.

With `CN(C1CCN(CCCCOc2ccc(Cl)cc2)CC1)S(=O)(=O)c1cccc2cnccc12` [Example 6, N-Methyl-N-{1-[4-(p-chlorophenoxy)butyl4-piperidyl}-5-isoquinolinesulfonamide hydrochloride] the IC50 (rat aortas; 80 mM KCl, 37 mM NaCl) was 1.1 µM and the inhibition at 1 µM (rabbit aortas) was 18%.

Compound `O=S(=O)(NCC1CCN(CCCNc2ccc(F)cc2)CC1)c1cccc2cnccc12` [Example 24, N-{[1-[3-(p-fluorophenylamino)propyl]-4-piperidyl]methyl}-5-isoquinolinesulfonamide fumarate] has an IC50 (rat aortas; 80 mM KCl, 37 mM NaCl) of 4.5 µM, an inhibition at 1 µM (rabbit aortas) of 67% and an inhibition at 0.1 µM (rabbit aortas) of 38%.

`CN(CC1CCN(CCCOc2ccc(F)cc2)C1)S(=O)(=O)c1cccc2cnccc12` (stereo not shown) [Example 22, N-Methyl-N-{[1-[3-(p-fluorophenoxy)propyl]-3-pyrrolidinyl]methyl}-5-isoquinolinesulfonamide dihydrochloride] gave an IC50 (rat aortas; 80 mM KCl, 37 mM NaCl) of 3.6 µM, an inhibition at 1 µM (rabbit aortas) of 82% and an inhibition at 0.1 µM (rabbit aortas) of 43%.

`CCN(C1CCN(CCCCOc2ccc(F)cc2)CC1)S(=O)(=O)c1cccc2cnccc12` [Example 26, N-Ethyl-N-{1-[4-(p-fluorophenoxy)butyl]-4-piperidyl}-5-isoquinolinesulfonamide dihydrochloride] showed an IC50 (rat aortas; 80 mM KCl, 37 mM NaCl) of 5.3 µM and an inhibition at 1 µM (rabbit aortas) of 26%.
